# Experimental data published in patent US20060014812A1, “Use of estrogen related receptor-modulating aryl ethers” (priority 2004, published 2006).
# Molecular target: T1, ligand binding domain of ERR-α (aa 183-424) (Homo sapiens, UniProt P11474)
# T1 construct: His tag (N); thrombin cleavage site (N); made in house; host or cells: E. coli BL21(DE3+)
# T1 sequence (P11474 183-423 limits assumed): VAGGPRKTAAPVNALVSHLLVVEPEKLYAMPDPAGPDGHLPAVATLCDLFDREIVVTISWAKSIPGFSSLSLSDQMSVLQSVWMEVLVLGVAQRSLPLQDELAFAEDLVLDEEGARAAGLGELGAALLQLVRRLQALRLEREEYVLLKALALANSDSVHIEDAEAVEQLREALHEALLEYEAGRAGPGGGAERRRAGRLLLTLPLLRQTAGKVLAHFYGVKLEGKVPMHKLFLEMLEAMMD
# Test: ThermoFluor thermal-shift binding affinity screen against ERR-α ligand binding domain
# Settings: 100 μM test compound, 0.1 mg/mL ERR-α, pH 7.6, Kd estimated from melting temperature shift at reference temperature, read-out: TF Kd
# Description: The ligand binding domain of ERR-α (aa 183-424) was subcloned in frame with the N-terminal His tag and the cleavable thrombin site in pET28. The protein was expressed in BL21(DE3^+) following induction with 100 μM IPTG at 16° C. Cells were harvested after 16 hours (h) of induction and lysed in 20 mM Tris pH 7.5, 500 mM NaCl, 5 mM imidazole, 5% glycerol, protease inhibitor cocktail (-EDTA) and 2 mM β-ME. Insoluble material was removed by centrifugation at 40,000×g for 1 hr. Clarified homogenate was applied on a Ni-NTA column and after applying an imidazole gradient the protein was eluted. The protein was further purified on size exclusion chromatography to an apparent homogeneity of 95% as judged by SDS-PAGE chromatography.
# Binding affinities of compounds were determined by screening against the ligand binding domain of ERR-α using ThermoFluor® technology (U.S. Pat. No. 6,020,141 and U.S. Pat. No. 6,036,920, and Journal of Biomolecular Screening 6 (6), […], pgs 429-440). Assay plates were prepared by dispensing 2 μL of a protein-dye solution and 2 μL of the test compound in a 384-well plate. The conditions used in the screen were: 0.1 mg/mL ERR-α, 25 mM Na-phosphate buffer at pH 7.6, 200 mM NaCl, 10% glycerol, 16 μM ANS, 2% DMSO and the final concentration of test compound was 100 μM. Finally 1 μL of mineral oil was dispensed on top to prevent evaporation during the high throughput screen (HTS). ThermoFluor® is an HTS assay that measures protein unfolding based on fluorescence detection of the denatured form of the protein. The reporter for the protein unfolding event is the environmentally sensitive dye ANS that is incorporated in the screening buffer. During a typical experiment the 384-well plate is heated at a ramping rate of 1° C./min and the thermal unfolding of the protein is monitored at 1° C. intervals by measuring fluorescence changes detected through a CCD camera. Captured images are integrated and a melting curve is generated that relates fluorescence to fraction of unfolded protein as a function of temperature. For the ERR-α screen, data were collected from 30 to 80° C. at 1° C. intervals and the protein melted under the screening conditions with a characteristic melting temperature, Tm, of 52.1° C. Hits were identified from the screen by measuring an increase in the melting temperature of the protein.
# In order to estimate binding affinities, it was taken into account that the oligomeric state of ERR-α, which is a dimer (N2), and that of a single ligand (Lf) can interact per monomer subunit with equal affinity. The melting curve for such a system is described by the following three equilibria: [formula] The first equilibrium describes the denaturation of ERR-α dimers; the second equilibrium describes the dissociation of the first ligand from the single ligand occupied ERR-α dimers (N2L); and the third equilibrium describes the dissociation of the second ligand from the fully occupied ERR-α dimers (N2L2).
# Following the derivations of Brandts and Lin (Biochemistry, 29, 6967, 1990) the dissociation constants for the ligands (Kd1^t^m) can be determined at T=Tm for any ligand concentration Lt by solving numerically the conservation of mass equations: [formula] and Ku is in the unfolding equilibrium constant for ERR-α dimers that is calculated from the melting curve of the protein in the absence of ligand as described by Pantoliano et al. (J. Biomolecular Screening, 6, 429, 2001) and Bowie & Sauer (Biochemistry, 28, 7139, 1989).
# To compare dissociation constants at a common reference temperature, Tref, the following equation was used: [formula] where • Kd^ref=is the dissociation constant of the ligand at a reference temperature Tref • ΔHb^ref=is the binding enthalpy of the ligand to the protein at a reference temperature Tref. […]
row,SMILES,Kd [nM]
1,"COc1cc(/C=C2\SC(=O)NC2=O)cc(Cl)c1Oc1ccc(C(F)(F)F)cc1[N+](=O)[O-] [Example 13, 5-[3-Chloro-5-methoxy-4-(2-nitro-4-trifluoromethyl-phenoxy)-benzylidene]-thiazolidine-2,4-dione]",79500
2,"O=C1NC(=O)/C(=C/c2ccc(Oc3ccccc3)cc2)S1 [Example 20, 5-(4-Phenoxy-benzylidene)-thiazolidine-2,4-dione]",9500
3,"COC(=O)c1ccc(Oc2ccc(C=C3C(=O)c4ccccc4C3=O)cc2OC)c([N+](=O)[O-])c1 [Example 35, 4-[4-(1,3-Dioxo-indan-2-ylidenemethyl)-2-methoxy-phenoxy]-3-nitro-benzoic acid methyl ester]",520
4,"COc1cc(/C=C(/C(=O)c2cccs2)C(=O)C(F)(F)F)ccc1Oc1ccc(C(F)(F)F)cc1[N+](=O)[O-] [Example 29, 4,4,4-Trifluoro-2-[3-methoxy-4-(2-nitro-4-trifluoromethyl-phenoxy)-benzylidene]-1-thiophen-2-yl-butane-1,3-dione]",15400
5,"O=C1NC(=O)/C(=C/c2ccc(Oc3ccc(C(F)(F)F)cc3[N+](=O)[O-])cc2)S1 [Example 14, 5-[4-(2-Nitro-4-trifluoromethyl-phenoxy)-benzylidene]-thiazolidine-2,4-dione]",588
6,"COc1cc(/C=C2\SC(=O)NC2=O)ccc1OCc1cccc(F)c1 [Example 38, 5-[4-(3-Fluoro-benzyloxy)-3-methoxy-benzylidene]-thiazolidine-2,4-dione]",3180
7,"CCCCN1C(=O)S/C(=C\c2ccc(Oc3ccc(C(F)(F)F)cc3[N+](=O)[O-])c(OC)c2)C1=O [Example 19, 3-Butyl-5-[3-methoxy-4-(2-nitro-4-trifluoromethyl-phenoxy)-benzylidene]-thiazolidine-2,4-dione]",2700
8,"COc1cc(C=C(C#N)C#N)ccc1Oc1ccc(C(F)(F)F)cc1[N+](=O)[O-] [Example 22, 2-[3-Methoxy-4-(2-nitro-4-trifluoromethyl-phenoxy)-benzylidene]-malononitrile]",5060
9,"COc1cc(/C=C2/NC(=S)NC2=O)ccc1Oc1ccc(C(F)(F)F)cc1[N+](=O)[O-] [Example 31, 5-[3-4-(2-nitro-4-trifluoromethyl-phenoxy)-benzylidene]-2-thioxo-imidazolidin-4 4-one]",2200
10,"COc1cc(/C=C2\SC(=O)NC2=O)ccc1OCc1ccc(F)cc1Cl [Example 37, 5-[4-(2—Chloro-4-fluoro-benzyloxy)-3-methoxy-benzylidene]-thiazolidine-2,4-dione]",414

# Now from value to molecule:
row,Kd [nM],SMILES
1,795,"COc1cc(/C=C2\C(=O)ON=C2c2ccccc2)ccc1Oc1ccc(C(F)(F)F)cc1[N+](=O)[O-] [Example 32, 4-[3-4-(2-nitro-4-trifluoromethyl-phenoxy)-benzylidene]-3-phenyl-4H-isoxazol-5-one]"
2,473,"COc1cc(C=C2C(=O)c3ccccc3C2=O)ccc1Oc1ccc(C(F)(F)F)cc1[N+](=O)[O-] [Example 33, 2-[3-4-(2-nitro-4-trifluoromethyl-phenoxy)-benzylidene]-indan-1,3-dione]"
3,1380,"COc1cc(/C=C(\C#N)c2ccccn2)ccc1Oc1ccc(C(F)(F)F)cc1[N+](=O)[O-] [Example 27, 3-[3-Methoxy-4-(2-nitro-4-trifluoromethyl-phenoxy)-phenyl]-2-pyridin-2-yl-acrylonitrile]"
4,14600,"COc1cc(/C=C(\C#N)S(=O)(=O)c2ccccc2)ccc1Oc1ccc(C(F)(F)F)cc1[N+](=O)[O-] [Example 23, 2-Benzenesulfonyl-3-[3-methoxy-4-(2-nitro-4-trifluoromethyl-phenoxy)-phenyl]-acrylonitrile]"
5,608,"COc1cc(/C=C(\C#N)C(=O)c2ccccc2)ccc1Oc1ccc(C(F)(F)F)cc1[N+](=O)[O-] [Example 28, 2-Benzoyl-3-[3-methoxy-4-(2-nitro-4-trifluoromethyl-phenoxy)-phenyl]-acrylonitrile]"
